The results in this text go back to patent US20230050965A1, “SSTR5 ANTAGONISTS” (Kallyope, Inc., priority 2019, published 2023).

The target in one data set is T1, human SSTR5 (Homo sapiens, UniProt P35346).
T1 construct: expressed in transfected cells
As to the kind of experiment: Inositol phosphate (IP1) accumulation assay, antagonist mode. Type of data set: cell-based. To be noted: CHO-K1 cells stably co-expressing human SSTR5 with Gqi5; pre-incubation with antagonist, then SST28 agonist; IP1 HTRF readout. The text has this:
Inositol Phosphate Accumulation Assay
CHO-K1 cells stably co-expressing human SSTR5 with Gqi5 were developed using Jump-In technology from Thermo-Fisher. Gqi5 is the mouse G alpha q protein, that was modified to interact with Gi-coupled GPCRs as described previously (Coward, P.; Chan, S. D.; Wada, H. G.; Humphries, G. M.; Conklin, B. R. Chimeric G proteins Allow a High-Throughput Signaling Assay of Gi-Coupled Receptors. Anal Biochem. 1999, 270(2), 242-248).
Co-expression of Gqi5 with SSTR5 allowed monitoring of SSTR5 activity by following IP1 accumulation. The assay was performed in a 384-well plate format using the IP1 assay kit from Cis-Bio in an antagonist mode, i.e., pre-incubation with antagonist following by receptor activation by agonist at a concentration generating 90% of full activation. Frozen cells expressing human SSTR5 were thawed, washed, and then plated in DMEM supplemented with 10% FBS and non-essential amino acids. 40 μL of 2.5×10^5 cells/mL were plated on a Poly D-Lysine coated 384-well white plate. The cells were then incubated for 16 hr. at 37° C./5% CO2. After 16 hour the medium was removed, and 10 μL of stimulation buffer was added to the cells. Test compounds were dissolved in DMSO at concentrations 2000-fold that of the final assay concentrations. 7.5 nL compound solutions were transferred to the cell plates using a Labcyte Echo® acoustic liquid handler. The plates were then incubated for 15 minutes at 37° C./5% CO2. After the first incubation, 5 μL of 30 nM SST28 were added to the cells, and the cells were incubated for 90 minutes at 37° C./5% CO2. 5 μL of detection buffer (prepared as described in the IP-1 kit) was added to each well, and the plates were incubated at RT for 1 hour.
TR-FRET was measured using a ClarioSTAR plate reader, calculating the ratio between emissions at 665 nm and 620 nm (HTRF ratio). The HTRF ratio for positive (Max) and negative (Min) controls were used to normalize HTRF data and generate values for % inhibition. IC50 and maximal inhibition values were determined using a standard 4-parameter fit.
(In general: Time-resolved FRET reads energy transfer from a long-lived donor to a nearby acceptor.)

The nature of data set [1]: Oral bioavailability after oral dosing in rat. To be noted: in vivo, Sprague Dawley rats, IV 1 mg/kg, PO 5 mg/kg, read-out: F % (oral bioavailability). The protocol: Example A-2: Oral Bioavailability of the Compounds after Oral Dosing in Rat
Oral bioavailability of the compounds was determined in Sprague Dawley rats. The table below summarizes the results. Each compound was dosed intravenously (IV) at 1 mg/kg and orally (PO) 5 mg/kg using the respective vehicles listed below. The compounds display low (<10%) oral bioavailability (F %).

T1 sequence (P35346 whole entry): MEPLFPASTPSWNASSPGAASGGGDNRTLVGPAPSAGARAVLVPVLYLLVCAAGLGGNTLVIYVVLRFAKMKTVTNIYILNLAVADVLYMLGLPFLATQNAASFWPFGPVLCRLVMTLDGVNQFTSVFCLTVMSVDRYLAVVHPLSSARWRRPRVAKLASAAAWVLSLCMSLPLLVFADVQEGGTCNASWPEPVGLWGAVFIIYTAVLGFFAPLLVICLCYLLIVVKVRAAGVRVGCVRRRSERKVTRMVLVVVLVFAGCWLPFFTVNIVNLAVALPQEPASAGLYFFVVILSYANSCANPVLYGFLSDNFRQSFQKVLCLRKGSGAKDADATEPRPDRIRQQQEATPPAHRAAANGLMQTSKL

For orientation: IC50 means the concentration needed to halve the response being measured. Read a low IC50 as greater potency in that assay. The term bioavailability denotes the share of a dose that reaches the circulation, judged against a reference dose that is usually intravenous. Regarding `CCOc1cc(-c2ccc(F)cc2)c(C2CC2)cc1CN1CCC2(CC1)CN(c1ccc([PH](=O)O)cc1)C(=O)O2` [Compound 3, (4-(8-((2-cyclopropyl-5-ethoxy-4′-fluoro-[1,1′-biphenyl]-4-yl)methyl)-2-oxo-1-oxa-3,8-diazaspiro[4.5]decan-3-yl)phenyl)phosphinic acid], the IC50 at human SSTR5 was at most 100 nM. The bioavailability in data set [1] was 1.9%.
As for `CCOc1cc(-c2ccc(F)cc2)c(C2CC2)cc1CN1CCC2(CC1)CN(c1ccc(P(C)(=O)O)cc1)C(=O)O2` [Compound 2, (4-(8-((2-cyclopropyl-5-ethoxy-4′-fluoro-[1,1′-biphenyl]-4-yl)methyl)-2-oxo-1-oxa-3,8-diazaspiro[4.5]decan-3-yl)phenyl)(methyl)phosphinic acid], the IC50 on human SSTR5 is at most 100 nM. Further, in data set [1], the bioavailability was 8.7%.
The compound `CCOc1cc(-c2ccc(F)cc2)c(C2CC2)cc1CN1CCC2(CC1)CN(c1ccc(P(=O)(O)O)cc1)C(=O)O2` [Compound 1, (4-(8-((2-cyclopropyl-5-ethoxy-4′-fluoro-[1,1′-biphenyl]-4-yl)methyl)-2-oxo-1-oxa-3,8-diazaspiro[4.5]decan-3-yl)phenyl)phosphonic acid] returned an IC50 at human SSTR5 of at most 100 nM. In addition, the bioavailability in data set [1] worked out at 0.9%.
For `CCOc1cc(-c2ccc(F)cn2)c(C2CC2)cc1CN1CCC2(CC1)CN(c1ccc(P(=O)(O)O)cc1)C(=O)O2` [Compound 9, (4-(8-(5-cyclopropyl-2-ethoxy-4-(5-fluoropyridin-2-yl)benzyl)-2-oxo-1-oxa-3,8-diazaspiro[4.5]decan-3-yl)phenyl)phosphonic acid], the IC50 on human SSTR5 is at most 100 nM. In data set [1], the bioavailability is 0.2%.
